pIC50: −log10 of the molar value. The source made the active and inactive calls. The calls are words filed in the database; no cut-off is given here.
How the values were obtained:
[1] = molecular target: T1, Aldo-keto reductase family 1 member B1 (Rattus norvegicus, UniProt P07943); test: (§1) Inhibition of ALR2 in rat sciatic nerve assessed as reduction in sorbitol accumulation incubated for 3 hrs in presence of 28 mM glucose by gas chromatographic analysis
[2] = molecular target: Aldo-keto reductase family 1 member B1 (Rattus norvegicus) (UniProt P07943); test: as §1
MIN6 [3] = test: Antidiabetic activity in mouse MIN6 cells after 35 passages assessed as increase in insulin secretion at 100 uM in presence of 25 mM glucose by ELISA relative to control; assay type: functional
[4] = Cytotoxicity against HEK293 cells assessed as reduction in cell viability at 100 uM incubated for 48 hrs by MTT assay relative to control; assay type: cell-based; conditions: human, read-out: INH
[5] = Antioxidant activity assessed as DPPH radical scavenging activity at 50 uM incubated for 30 mins under dark condition by spectrophotometry; assay type: functional
[6] = molecular target: Aldo-keto reductase family 1 member A1 (Rattus norvegicus, UniProt P51635); test: Inhibition of rat kidney ALR1 using DL-glyceraldehyde as substrate and NADPH preincubated for 5 mins followed by substrate addition and measured for 30 mins at 2 mins interval by spectrophotometry relative to control
MIN6 [7] = test: Effect on cell morphology in mouse MIN6 cells assessed as cell viability up to 400 uM incubated for 24 hrs; assay type: cell-based; conditions: min6, 24 h
[8] = Selectivity ratio of IC50 for rat kidney ALR1 IC50 to IC50 for human recombinant ALR2
[9] = Cytotoxicity against HEK293 cells assessed as reduction in cell viability at 200 uM incubated for 48 hrs by MTT assay relative to control; assay type: cell-based; conditions: human, read-out: INH
[10] = molecular target: T1, Aldo-keto reductase family 1 member B1; test: (§2) Inhibition of ALR2 in rat erythrocytes assessed as reduction in sorbitol accumulation incubated for 3 hrs in presence of 28 mM glucose by gas chromatographic analysis relative to control; assay type: cell-based
[11] = molecular target: Aldo-keto reductase family 1 member B1 (Rattus norvegicus) (UniProt P07943); test: as §2; assay type: cell-based
MIN6 [12] = test: Antidiabetic activity in mouse MIN6 cells after 83 passages assessed as increase in insulin secretion at 100 uM in presence of 25 mM glucose by ELISA relative to control; assay type: functional
MIN6 [13] = test: Cytotoxicity against mouse MIN6 cells assessed as reduction in cell viability up to 200 uM incubated for 24 hrs by MTT assay; assay type: cell-based; conditions: min6, 24 h
[14] = molecular target: T2, Aldo-keto reductase family 1 member B1 (Homo sapiens, UniProt P15121); test: Inhibition of human recombinant ALR2 expressed in Escherichia coli using DL-glyceraldehyde as substrate and NADPH preincubated for 5 mins followed by substrate addition and measured after 30 mins at 2 mins interval by spectrophotometry relative to control
[15] = Antioxidant activity assessed as DPPH radical scavenging activity at 10 uM incubated for 30 mins under dark condition by spectrophotometry; assay type: functional
[16] = molecular target: T1, Aldo-keto reductase family 1 member B1; test: (§3) Inhibition of ALR2 in rat lens assessed as reduction in sorbitol accumulation incubated for 3 hrs in presence of 28 mM glucose by gas chromatographic analysis relative to control
[17] = molecular target: Aldo-keto reductase family 1 member B1 (Rattus norvegicus) (UniProt P07943); test: as §3
[18] = Cytotoxicity against HEK293 cells assessed as reduction in cell viability at 50 uM incubated for 48 hrs by MTT assay relative to control; assay type: cell-based; conditions: human, read-out: INH
[19] = Cytotoxicity against mouse MIN6 cells assessed as cell viability at 400 uM incubated for 24 hrs by MTT assay; assay type: cell-based; conditions: read-out: Activity
[20] = Antioxidant activity assessed as DPPH radical scavenging activity at 100 uM incubated for 30 mins under dark condition by spectrophotometry; assay type: functional
[21] = Cytotoxicity against HEK293 cells assessed as reduction in cell viability at 25 uM incubated for 48 hrs by MTT assay relative to control; assay type: cell-based; conditions: human, read-out: INH
MIN6 [22] = test: Antidiabetic activity in mouse MIN6 cells after 35 passages assessed as increase in insulin secretion incubated for 48 hrs presence of 1 mM glucose by ELISA; assay type: functional, cell-based
MIN6 [23] = test: Antidiabetic activity in mouse MIN6 cells after 83 passages assessed as increase in insulin secretion incubated for 48 hrs presence of 1 mM glucose by ELISA; assay type: functional, cell-based
MIN6 [24] = test: Antidiabetic activity in mouse MIN6 cells after 35 passages assessed as increase in insulin secretion incubated for 48 hrs presence of 25 mM glucose by ELISA; assay type: functional, cell-based
Mus musculus = test: Antihyperglycemic activity in alloxanized BALB/c mouse assessed as reduction in blood glucose level at 150 mg/kg, po measured after 8 hrs relative to control; assay type: functional
MIN6 [25] = test: Antidiabetic activity in mouse MIN6 cells after 83 passages assessed as increase in insulin secretion incubated for 48 hrs presence of 25 mM glucose by ELISA; assay type: functional, cell-based
[26] = molecular target: T2, Aldo-keto reductase family 1 member B1; test: Non-competitive Inhibition of ALR2 (unknown origin) using varying level of D,L-glyceraldehyde as substrate at 20 uM in presence of NADPH by Lineweaver-Burk plot analysis
[27] = molecular target: T2, Aldo-keto reductase family 1 member B1; test: Uncompetitive Inhibition of ALR2 (unknown origin) using varying level of D,L-glyceraldehyde as substrate at 10 uM in presence of NADPH by Lineweaver-Burk plot analysis
[28] = molecular target: T2, Aldo-keto reductase family 1 member B1; test: Non-competitive Inhibition of ALR2 (unknown origin) using fixed level of D,L-glyceraldehyde as substrate at 20 uM in presence of varying level of NADPH by Lineweaver-Burk plot analysis
[29] = molecular target: T2, Aldo-keto reductase family 1 member B1; test: Uncompetitive Inhibition of ALR2 (unknown origin) using fixed level of D,L-glyceraldehyde as substrate at 10 uM in presence of varying level of NADPH by Lineweaver-Burk plot analysis
[30] = system: CC(C)c1ccc(S(=O)(=O)N2C(=O)NC(=O)C23CCCc2ccccc23)cc1; test: Uncompetitive Inhibition of ALR2 (unknown origin) assessed as substrate Km using varying level of D,L-glyceraldehyde as substrate at 10 uM in presence of NADPH by Lineweaver-Burk plot analysis (reference value: 0.585 mM); conditions: Homo sapiens

Aldo-keto reductase family 1 member A1, sequence (P51635 whole entry, looked up): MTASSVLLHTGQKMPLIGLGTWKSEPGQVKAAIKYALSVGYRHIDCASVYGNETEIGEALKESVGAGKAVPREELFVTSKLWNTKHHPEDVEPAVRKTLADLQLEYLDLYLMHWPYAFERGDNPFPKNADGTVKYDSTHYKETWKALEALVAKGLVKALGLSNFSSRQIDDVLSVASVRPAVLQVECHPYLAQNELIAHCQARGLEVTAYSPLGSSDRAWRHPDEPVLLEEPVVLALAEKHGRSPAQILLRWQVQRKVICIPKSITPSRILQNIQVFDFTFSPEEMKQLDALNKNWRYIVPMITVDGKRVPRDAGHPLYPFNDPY

pIC50 [1]	inhibition [2]	pIC50 [6]	Ratio IC50 [8]	pIC50 [10]	inhibition [11]	pIC50 [14]	pIC50 [16]	inhibition [17]	Compound	Activity (MIN6 [3]) [%]	cytotoxicity at 48 h, 100 µM [4] [%]	inhibition [5] [%]	Activity (MIN6 [7])	cytotoxicity at 48 h, 200 µM [9] [%]	Activity (MIN6 [12]) [%]	Activity (MIN6 [13])	inhibition [15] [%]	cytotoxicity at 48 h, 50 µM [18] [%]	viability at 24 h, 400 µM [19] [%]	inhibition [20] [%]	also measured
5.20	Dose-dependent effect	4.97	1.88	5.15	Dose-dependent effect	5.25	5.13	Dose-dependent effect	COc1ccc(S(=O)(=O)N2C(=O)NC(=O)C23CCCc2ccccc23)cc1 (stereo not given)	170	25.2	53.3	Non-Toxic	27.5	122	Non-Toxic	41.4	21.1	81	66.8	cytotoxicity at 48 h, 25 µM [21]: 14%
6.14	Dose-dependent effect	4.17	73.7	6.07	Dose-dependent effect	6.25	6.08	Dose-dependent effect	CC(C)c1ccc(S(=O)(=O)N2C(=O)NC(=O)C23CCCc2ccccc23)cc1 (stereo not given)	230	16.1	75.2	Non-Toxic	22.3	192	Non-Toxic	72.7	16.2	81	85.3	inhibition [26]: Active; inhibition [27]: Active; inhibition in vivo at 150 mg/kg (Mus musculus): 50.3%; inhibition [28]: Active; inhibition [29]: Active; cytotoxicity at 48 h, 25 µM [21]: 14.2%
6.17	Dose-dependent effect	4.49	53.7	6.22	Dose-dependent effect	6.19	6.19	Dose-dependent effect	CC(=O)c1ccc(S(=O)(=O)N2C(=O)NC(=O)C23CCCc2ccccc23)cc1 (stereo not given)	370	26.6	39.7	Non-Toxic	34.6	228	Non-Toxic	25.2	23.2	81	75.5	inhibition in vivo at 150 mg/kg (Mus musculus): 52.2%; Activity (MIN6 [22]): Active; Activity (MIN6 [25]): Active; Activity (MIN6 [23]): Active; Activity (MIN6 [24]): Active; cytotoxicity at 48 h, 25 µM [21]: 16.3%

The remaining lines, values behind:

Compound	pIC50 [1]	inhibition [2]	pIC50 [6]	Ratio IC50 [8]	pIC50 [10]	inhibition [11]	pIC50 [14]	pIC50 [16]	inhibition [17]	Activity (MIN6 [3]) [%]	cytotoxicity at 48 h, 100 µM [4] [%]	inhibition [5] [%]	Activity (MIN6 [7])	cytotoxicity at 48 h, 200 µM [9] [%]	Activity (MIN6 [12]) [%]	Activity (MIN6 [13])	inhibition [15] [%]	cytotoxicity at 48 h, 50 µM [18] [%]	viability at 24 h, 400 µM [19] [%]	inhibition [20] [%]	also measured
CC(C)c1ccc(S(=O)(=O)N2C(=O)NC3(CCCc4ccccc43)C2=O)cc1 (stereo not given)	4.89	Dose-dependent effect	4.49	4.05	4.99	Dose-dependent effect	5.10	4.97	Dose-dependent effect	295	12.6	84.2	Non-Toxic	18.5	84	Non-Toxic	82.3	12.5	81	92.3	Activity (MIN6 [22]): inactive; Activity (MIN6 [23]): inactive; Activity (MIN6 [24]): inactive; cytotoxicity at 48 h, 25 µM [21]: 10.1%
CCCCNC(=O)NS(=O)(=O)c1ccc(C)cc1 [TOLBUTAMIDE]	–	–	–	–	–	–	–	–	–	340	–	–	–	–	110	–	–	–	–	–	inhibition in vivo at 150 mg/kg (Mus musculus): 47.2%; Activity (MIN6 [22]): Active; Activity (MIN6 [25]): Active; Activity (MIN6 [23]): Active; Activity (MIN6 [24]): Active
Aldo-keto reductase family 1 member B1 (Homo sapiens) (from UniProt P15121)	–	–	–	–	–	–	–	–	–	–	–	–	–	–	–	–	–	–	–	–	Km [30]: 537 µM

Reference: ChEMBL document CHEMBL4387705, “Synthesis of new arylsulfonylspiroimidazolidine-2',4'-diones and study of their effect on stimulation of insulin release from MIN6 cell line, inhibition of human aldose reductase, sorbitol accumulations in various tissues and oxidative stress” (Eur J Med Chem, 2019)
